Results reported in patent US11607422B2, “Uttroside B and derivatives thereof as therapeutics for hepatocellular carcinoma” (Rajiv Gandhi Centre for Biotechnology, an Autonomous …, priority 2016, dated 2023).

Tests used:
[1] = tested on: HeLa; experiment: MTT cell viability assay in HeLa cells; assay type: cell-based; conditions: 72 h
Experimental: (§1) FIG. 2A is a graph comparison of IC50 of Uttroside B in a panel of cancer cells of different origin. The cancer cell lines HeLa, A375, HepG2, MDA-MB-231, HL 60, A549 and HCT116 were treated with Uttroside B as indicated, incubated for 72 h and the cell viability was assessed by MTT assay. FIG. 2B is a graph showing dose dependent effect of Uttroside B in the liver cancer cell lines and in normal immortalized hepatocytes. The liver cancer cell lines HepG2, Hep3B, SKHEP-1, Huh-7 and normal hepatocytes (Chang liver), were treated with Uttroside B incubated for 72 h and the cell viability was assessed by MTT assay. FIG. 2C is a graph comparison of IC50 of Uttroside B with sorafenib. HepG2 cells were treated with Uttroside B as indicated, incubated for 72 h, and the cell viability was assessed by MTT assay. […] The clones developed were counted and plotted as a graph. Colony containing more than four cells was counted as one clone. […]
(§2) MTT [3-(4,5-dimethylthiazole-2-yl)-2,5-diphenyltetrazolium bromide] assay is a standard colorimetric assay, suitable for analyzing proliferation, viability, and cytotoxicity. […] After overnight incubation, cells were treated with different concentrations of organic extracts (25-250 μg/ml) of S. nigrum and the isolated compound Uttroside B (250-1250 nM) for 72 h and cytotoxicity was measured. […]

[2] = tested on: hepatocellular carcinoma cells (HepG2, Hep3B, SKHep1, and Huh-7); experiment: MTT assay in different hepatocellular carcinoma cells; assay type: cell-based; conditions: SKHep1, Huh-7, 72 h, read-out: IC50 in liver cancer cells
Experimental: as §1, §2

[3] = tested on: MAPK pathway in HepG2 cells; experiment: Western blot of MAPK phosphorylation (p-JNK, p-38, p-42/44); assay type: cell-based, human
Experimental: FIGS. 4A-4E are images showing Uttroside B inhibits MAPK and mTOR signaling, some of the crucial survival signals in liver cancer. […] HepG2 cells were treated with Uttroside B for different time intervals (0-240 min) and the whole cell lysate was resolved on a 10% gel and immunoblotted against phospho-ERK1/2 and phospho-Akt antibodies. Taxol was used as a positive control. […] HepG2 cells were treated with Uttroside B at different time intervals and the whole cell lysate was resolved on an 8% gel and immunoblotted against phospho-mTOR (2448) and phospho-mTOR (2481) antibodies.
Western blot analysis. Approximately 0.5×10^6 cells were grown on 60 mm culture plates and exposed to drugs as indicated for the desired time. The cells were then scraped out, washed in ice cold 1× PBS and pelleted down at 13000 rpm for 2 min. […]

Q: Which results are given for `C[C@H](CC[C@@]1(O)O[C@H]2C[C@H]3[C@@H]4CC[C@H]5C[C@@H](O[C@@H]6O[C@H](CO)[C@H](O[C@@H]7O[C@H](CO)[C@@H](O)[C@H](O[C@@H]8OC[C@@H](O)[C@H](O)[C@H]8O)[C@H]7O[C@@H]7O[C@H](CO)[C@@H](O)[C@H](O)[C@H]7O)[C@H](O)[C@H]6O)CC[C@]5(C)[C@H]4CC[C@]3(C)[C@H]2[C@@H]1C)CO[C@@H]1O[C@H](CO)[C@@H](O)[C@H](O)[C@H]1O` [Uttroside B]?
A: IC50 [1]: 1.5 µM; IC50 [2]: 0.4 to 0.6 µM; PMA-induced activation of p-JNK, p-38 and p-42/44 [3]: down-regulated; basal activation of MAPK pathway (p-42/44, p-JNK) [3]: significantly down-regulated
